From patent publication US8404738B2 (Hoffmann-La Roche Inc., priority 2011, dated 2013) come the findings set out here.

For one experiment, the target named is T1, recombinant human HDAC8 (Homo sapiens, UniProt Q9BY41).
T1 construct: made in house; host or cells: insect cells
T1 sequence (Q9BY41 1-377): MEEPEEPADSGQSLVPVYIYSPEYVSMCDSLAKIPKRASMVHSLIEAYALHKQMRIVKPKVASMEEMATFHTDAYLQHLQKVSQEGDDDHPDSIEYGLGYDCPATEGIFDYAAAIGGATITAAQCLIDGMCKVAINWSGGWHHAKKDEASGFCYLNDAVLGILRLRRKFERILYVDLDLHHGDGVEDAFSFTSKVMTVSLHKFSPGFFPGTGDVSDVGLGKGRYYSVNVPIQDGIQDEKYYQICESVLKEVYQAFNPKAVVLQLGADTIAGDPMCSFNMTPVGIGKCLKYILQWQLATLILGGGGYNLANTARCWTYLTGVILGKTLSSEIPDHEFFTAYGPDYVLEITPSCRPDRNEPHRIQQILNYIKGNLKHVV
Nature of the experiment: HDAC8 inhibition: recombinant HDAC8 fluorometric assay. Type of experiment: biochemical. Conditions: recombinant human HDAC8, substrate Ac-Arg-His-Lys-Lys(ε-acetyl)-AMC; read-out: HDAC8 IC50. The procedure, abridged: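 Recombinant human HDAC8 from insect cells was preincubated with compound for 15 min at rt, then given Ac-Arg-His-Lys-Lys(ε-acetyl)-AMC substrate for 30 min at rt. IC50 came from normalized percent inhibition with curve fitting.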

The test system of another experiment is OPM-2. Nature of the experiment: WST anti-proliferative assay, multiple myeloma cell line OPM-2. The class given is cell-based. Conditions: Homo sapiens; OPM-2 cells, 72 hours, CCK-8. An excerpt: (§1) WST Anti-Proliferative Assay and Assessment of Growth Inhibitory of Novel Compounds in Multiple Myeloma Cell Lines.
Experiment [1] has as its system p21 promoter-luciferase construct. Nature of the experiment: p21 reporter gene induction (HeLa cells, p21 promoter-luciferase construct).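 As to all read-outs here: transfected HeLa cells exposed to compound for 15 h, luciferase luminescence read from lysates, p21 promoter lacks p53 site, proxy for cellular HDAC1/2/3 inhibition.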 Conditions: for p21 RP3: relative gene level of p21 compared to MS275 at 3 μM; for p21 RP10: relative level of p21 compared to MS275 at 10 μM; for p21 RP30: relative level of p21 compared to MS275 at 30 μM.
Description: As a surrogate for in-cell HDAC1/2/3 inhibition, p21 induction was used as a counterscreen to evaluate the selectivity of the compounds in the present invention toward HDAC6 or HDAC8.
The novel compounds of the present invention were tested for their ability to induce p21 gene expression using a reporter gene assay involving HeLa cells transfected with a p21 promoter-luciferase construct. The p21 promoter contained the Sp1/Sp3 binding site for HDAC but not the upstream p53 binding site. Briefly, the day before transfection, HeLa cells were seeded at 11,000 cells/well in a 96-well culture plate and incubated at 37° C. in 5% CO2 overnight. A transfection media was prepared prior to transfection according to the following procedure: (1) 5 μl serum-free DMEM, 0.15 μl Fugene 6 reagent, 40 ng p21-luc, 10 ng GFP were mixed gently and incubated at rt for 30 minutes; (2), then 98 μl DMEM (with 10% FBS, 1% penicillin and streptomycin) was added to the DNA: Fugene 6 reagent complex and mixed gently. For transfection, the medium was removed and replaced with 100 μl/well transfection media which was prepared according to the procedure above. After incubating the cells for 24 hours at 37° C. in 5% CO2, fresh media and test compounds were added to the wells and the cells further incubated for 15 hours at 37° C. in 5% CO2. Cells were lysed by adding 80 μl/well of a cell culture lysis reagent (Promega). 50 μl of each lysate was taken for GFP detection using an excitation wavelength of 486 nm and detection at 527 nm. 100 μl luciferase assay reagent (Promega) was then added to every 20 μl cell lysate for luminometer detection.
The next experiment concerns the target T2, HDAC6 (Homo sapiens, UniProt Q9UBN7).
T2 construct: endogenous in cells; host or cells: A549 cells
T2 sequence (Q9UBN7 1-1215): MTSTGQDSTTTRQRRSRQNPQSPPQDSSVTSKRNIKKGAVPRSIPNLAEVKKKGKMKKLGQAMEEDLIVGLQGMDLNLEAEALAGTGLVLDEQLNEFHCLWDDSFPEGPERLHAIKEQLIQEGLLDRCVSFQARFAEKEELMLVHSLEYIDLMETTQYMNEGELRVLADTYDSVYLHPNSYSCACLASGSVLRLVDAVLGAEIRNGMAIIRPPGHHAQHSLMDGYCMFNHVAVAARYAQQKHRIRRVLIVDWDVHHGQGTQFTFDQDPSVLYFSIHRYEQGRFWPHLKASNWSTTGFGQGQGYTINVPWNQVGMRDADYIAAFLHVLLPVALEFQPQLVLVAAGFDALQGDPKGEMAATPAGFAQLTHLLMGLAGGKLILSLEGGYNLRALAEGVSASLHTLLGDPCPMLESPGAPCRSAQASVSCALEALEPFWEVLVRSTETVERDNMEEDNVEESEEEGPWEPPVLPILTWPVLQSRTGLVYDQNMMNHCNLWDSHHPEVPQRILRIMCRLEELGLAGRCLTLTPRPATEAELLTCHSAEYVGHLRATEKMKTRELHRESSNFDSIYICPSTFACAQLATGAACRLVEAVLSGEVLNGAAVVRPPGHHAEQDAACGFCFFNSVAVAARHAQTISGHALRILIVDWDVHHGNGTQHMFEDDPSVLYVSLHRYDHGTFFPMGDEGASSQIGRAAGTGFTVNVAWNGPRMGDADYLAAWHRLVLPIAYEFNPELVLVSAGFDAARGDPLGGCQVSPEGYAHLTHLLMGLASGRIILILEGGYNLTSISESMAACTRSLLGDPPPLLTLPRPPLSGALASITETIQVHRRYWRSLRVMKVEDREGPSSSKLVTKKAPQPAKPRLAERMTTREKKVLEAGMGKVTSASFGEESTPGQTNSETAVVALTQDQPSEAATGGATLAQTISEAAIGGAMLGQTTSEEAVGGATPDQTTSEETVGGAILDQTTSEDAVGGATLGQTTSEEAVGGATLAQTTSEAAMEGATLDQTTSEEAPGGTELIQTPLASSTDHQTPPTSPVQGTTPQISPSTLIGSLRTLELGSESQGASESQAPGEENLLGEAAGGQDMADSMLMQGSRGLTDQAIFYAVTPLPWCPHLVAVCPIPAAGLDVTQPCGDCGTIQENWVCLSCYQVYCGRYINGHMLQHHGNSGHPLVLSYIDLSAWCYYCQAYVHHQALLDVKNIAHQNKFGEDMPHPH
Nature of the experiment: Tubulin acetylation cytoblot assay (A549 cells). Type of experiment: cell-based. To be noted: 17-18 h incubation, tubulin acetylation as marker of HDAC6 inhibition, read-out: Tub-Ac EC50. A digest of the protocol:
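Cells were exposed to compound for 17-18 h, then fixed with formaldehyde and permeabilized with cold MeOH. They were probed for 4 h at 4° C with anti-acetylated tubulin plus HRP anti-mouse IgG (each 1:750), and read by ECL luminescence. EC50 values came from curves normalized to top and bottom controls.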

A further experiment concerns RPMI-8226. Description: WST anti-proliferative assay, multiple myeloma cell line RPMI-8226. Type of experiment: cell-based. To be noted: Homo sapiens, RPMI8226 cells, 72 hours, CCK-8.
Description: as §1

A word on the IC50: it is the point on the concentration scale where inhibition reaches its midpoint. By EC50 is commonly meant the midpoint of the concentration-response curve.

As to `O=C(NO)c1ccc(NC2CC(=O)N(c3ccc(Cl)cc3)C2)cc1` (stereo not shown) [Example 73, 4-[1-(4-Chloro-phenyl)-5-oxo-pyrrolidin-3-ylamino]-N-hydroxy-benzamide], the IC50 on recombinant human HDAC8 was found to be 1.04 µM. This molecule also gave an IC50 in the experiment on OPM-2 of 4.95 µM. For the same molecule, in experiment [1], the “p21 RP3” value amounted to 0.12, the “p21 RP10” value came to 0.04 and the “p21 RP30” value was 0.04. In addition, the concentration for a half-maximal effect (EC50) on HDAC6 amounted to 1.47 µM. In addition, the IC50 in the experiment with RPMI-8226 came to 6.49 µM.
As for `O=C(NO)c1ccc(NC2CCN(c3ccc(Cl)cc3)C2=O)cc1` (stereo not shown) [Example 7, 4-[1-(4-Chloro-phenyl)-2-oxo-pyrrolidin-3-ylamino]-N-hydroxy-benzamide], the IC50 at recombinant human HDAC8 came to 0.55 µM. The molecule also registered an IC50 in the experiment with OPM-2 of 5.56 µM. Moreover, in experiment [1], the “p21 RP3” value is −0.08, the “p21 RP10” value was 0.12 and the “p21 RP30” value is given as 0.16. For the same molecule, the EC50 on HDAC6 is 1.41 µM. The molecule further yielded a concentration for half-maximal inhibition (IC50) in the experiment on RPMI-8226 of 8.79 µM.
Regarding `CC(C)(c1ccccc1)N1CCC(Nc2ccc(C(=O)NO)cc2)C1=O` (stereo not shown) [Example 47, N-Hydroxy-4-[1-(1-methyl-1-phenyl-ethyl)-2-oxo-pyrrolidin-3-ylamino]-benzamide], at recombinant human HDAC8, the IC50 is 0.52 µM. The IC50 in the experiment with OPM-2 was 3.62 µM. In experiment [1], the “p21 RP3” value is given as 0.05, the “p21 RP10” value came out at 0.09 and the “p21 RP30” value is given as 0.29. The EC50 on HDAC6 stood at 3.02 µM. In the experiment on RPMI-8226, this molecule registered an IC50 of 4.05 µM.
Consider `CC1(Nc2ccc(C(=O)NO)cc2)CCN(c2ccc(Cl)cc2)C1=O` (stereo not shown) [Example 60, 4-[1-(4-Chloro-phenyl)-3-methyl-2-oxo-pyrrolidin-3-ylamino]-N-hydroxy-benzamide], for which the IC50 worked out at 0.92 µM at recombinant human HDAC8, 3.94 µM in the experiment on OPM-2 and 8.11 µM in the experiment with RPMI-8226. Further, the “p21 RP3” value in experiment [1] was found to be 0.80. For the same molecule, the “p21 RP10” value in experiment [1] stood at 0.16. For the same molecule, the “p21 RP30” value in experiment [1] stood at 0.07. For the same molecule, the EC50 at HDAC6 turned out to be 0.53 µM.
